Data: patent US3983120A, “Process for the preparation of optionally substituted 1,2,3,5-tetrahydroimidazo[2,1-b]quinazolin-2-ones” (Bristol-Myers Company, priority 1974, dated 1976)

Columns and labels:
[1] = tested on: ADP-induced aggregation of blood platelet-rich plasma; assay: In Vivo/In Vitro platelet aggregation (ADP) after I.P. dosing of rabbits; details: Oryctolagus cuniculus, ip, 2 h, dose for 50% inhibition of aggregation, one to two hours after dosing
Method: (§1) *In vivo/In vitro testing:
(§2) Before dosing the animals, blood samples are taken. The blood is centrifuged to obtain the blood platelet-rich plasma. Aggregation of this plasma is induced with ADP or collagen. This is the control.
(§3) The animals are then dosed with the compounds to be tested (orally or parenterally). Depending upon the route of administration, one to two hours are allowed to elapse after dosing. Blood is drawn and the same procedure employed as for the control is untreated animals.
The dose required to produce 50% inhibition of the aggregation is determined by dose response data obtained in this manner.

[2] = tested on: ADP-induced aggregation of blood platelet-rich plasma; assay: In Vivo/In Vitro platelet aggregation (ADP) after P.O. dosing of dogs; details: one to two hours after dosing
Method: as §1, §2, §3

[3] = literature, in words; cited from earlier work

SMILES | ED50 [1] | In Vivo/In Vitro Dogs P.O. 5 mg./kg. ADP % Inhibition [2] | antihypertensive / hypotensive activity of prior art compounds [3]
CC1c2ccccc2N=C2NC(=O)CN21 (stereo not drawn) [Compound 29] | 7 mg/kg | 35% | –
c1ccc2c(c1)CN1CCNC1=N2 [SPC2] | – | – | potent antihypertensive activity in rats, dogs, cats and rabbits
